Test results published in patent US20100143456A1, “MODEL MEMBRANE SYSTEMS” (priority 1999, published 2010).

Tested on: P815 cells
Assay: FACS analysis of hexa-histidine-tagged B7.1 and CD40 engrafted onto P815 cells via incorporated lipid
Format: cell-based, murine
Details: 0.1 mM lipid 30 min 37° C., then 6His B7.1 and CD40 each ~20 μg/ml, streptavidin-FITC
Description: FIG. 2 is the fluorescence profile, as measured by fluorescence-activated cell sorting, of p815 cells engrafted with biotinylated and hexa-histidine-tagged CD40 and B7.1 molecules and then stained with streptavidin-FITC.
Cultured P815 tumor cells were washed twice in PBS to remove proteins from the culture media and suspended to 1×10^7 cells/ml in PBS. The cells were then aliquoted into 96-well V-bottom Seroeluster plates (Costar, Corning, N.Y.) at […] and incubated with 125 μM NTA-DTDA (alone or as a mixture with other lipids as indicated) or 125 μM DMPC (control) in PBS containing 125 μM Zn^2+, for 40 min at 37° C. […] The relative level of NTA-DTDA incorporated was routinely assessed by FACS analysis (see below) after incubating the cells with biotinylated 6His peptide (B-6His) (0.2 μg/ml) for 30 min at 4° C., washing twice with PBS-0.1% v/v BSA, and then staining with streptavidin-FITC. The cells were incubated with streptavidin-FITC (33 μg/ml) in PBS containing 1% v/v BSA (PBS-1% v/v-BSA) for 30 min at 4° C., washed three times with PBS-1% v/v BSA, fixed with 2% v/v paraformaldehyde in PBS, and then analyzed for FITC-fluorescence by FACS. […]
The histograms in FIG. 2 show fluorescence-activated cell sorting (FACS) profiles of murine mastocytoma P815 cells carrying engrafted recombinant hexa-histidine-tagged murine B7.1 and CD40. […]

Row | SMILES | fluorescence of P815 cells relative to cells pre-incubated with DMPC (Control) (biotinylated anti-B7.1 or anti-CD40 mAb) | level of fluorescence after staining with either monoclonal antibody (biotinylated mAb)
1 | CCCCCCCCCCCCCCN(CCCCCCCCCCCCCC)C(=O)CCC(=O)NCCCC[C@@H](C(=O)O)N(CC(=O)O)CC(=O)O [NTA-DTDA, N^α,N^αbis[carboxymethyl]-N^ε[(DTDA)suc]-L lysine] | 10-100 fold | 
2 | CCCCCCCCCCCCCC(=O)OC[C@H](COP(=O)([O-])OCC[N+](C)(C)C)OC(=O)CCCCCCCCCCCCC [DMPC, di-myristoyl-phosphatidylcholine] |  | low level of fluorescence
